According to US20050014824A1, “Pigment” (priority 2001, published 2005):
One block for each compound: values may come before it.

Experiments:
[1] = tested on: salmonid fishes; settings: cited from earlier work
[2] = tested on: enzymes from salmon intestines; test: hydrolysis of astaxanthin omega-3 fatty acid diester by enzyme mixture from salmon intestines, optical isomer distribution by HPLC of dicamphanates; type: in vitro ADME, Salmo salar
Description: As described in Example 1 below, hydrolysis experiments were performed with a diester of synthetic astaxanthin with omega-3 fatty acids and a crude enzyme preparation from salmon intestines in the same way as described before (NO-309386). The reaction products were analysed with regard to stereoisomer composition.
A diester of astaxanthin was prepared by conventional chemical synthesis from commercially obtained synthetic astaxanthin and an omega-3 fatty acid concentrate containing more than 90% omega-3 fatty acids, mainly EPA (eicosapentaenoic acid) and DHA (docosahexaenoic acid). The astaxanthin used had been prepared by chemical synthesis, and the distribution of the optical isomers (3R,3′R), meso and (3S,3′S) was 25.9:50.2:23.9, respectively, determined as described for the diol fraction.
The starting astaxanthin diester was treated with a freshly prepared enzyme mixture from the intestines of recently fed salmon (Salmo salar) for 48 hours. The pigment was then separated into three fractions by preparative thin-layer chromatography; a diol fraction with both hydroxyl groups hydrolysed, a monoester fraction with one hydroxyl group hydrolysed, and a remaining diester fraction. The astaxanthin in the diol fraction was converted into the corresponding diesters of (−)-camphanic acid by reaction with (−)-camphanoyl chloride, and the distribution of astaxanthin optical isomers were determined by high-performance liquid chromatography (HPLC) of the dicamphanates. The astaxanthin in the monoester fraction was first converted to diol in a hydrolysis reaction catalysed by the enzyme cholesterol esterase and subsequently treated with (−)-camphanic acid and analysed as described above. Attempts to convert the astaxanthin in the remaining diester fraction to diol using cholesterol esterase were not successful, as complete conversion was not obtained. The distribution of optical isomers of astaxanthin in the remaining diester fraction was therefore not determined.

[3] = pigment fraction, enzyme treatment 48 hours, starting diester = before treatment

SMILES: CCCCCCCCCCCCCCCC(=O)O[C@H]1CC(C)(C)C(/C=C/C(C)=C/C=C/C(C)=C/C=C/C=C(C)/C=C/C=C(C)/C=C/C2=C(C)C(=O)[C@@H](OC(=O)CCCCCCCCCCCCCCC)CC2(C)C)=C(C)C1=O [dipalmitate, of (3R,3′R)-astaxanthin]
utilisation by salmonids ([1]; diet containing the ester form, compared with dipalmitate of (3S,3′S)-astaxanthin): better than dipalmitate of (3S,3′S)-astaxanthin

distribution of astaxanthin optical isomers: (3R,3′R) [2, 3]: 94.6
distribution of astaxanthin optical isomers: meso [2, 3]: 5.4
SMILES: CC1=C(/C=C/C(C)=C/C=C/C(C)=C/C=C/C=C(C)/C=C/C=C(C)/C=C/C2=C(C)C(=O)[C@@H](O)CC2(C)C)C(C)(C)C[C@H](O)C1=O [Diol (after enzyme treatment)]
predominant optical isomer of astaxanthin in the fraction (in words) ([2]; after enzyme treatment): almost exclusively the (3R,3′R)-configuration, with traces of the meso-form

SMILES: CC1=C(/C=C/C(C)=C/C=C/C(C)=C/C=C/C=C(C)/C=C/C=C(C)/C=C/C2=C(C)C(=O)[C@@H](O)CC2(C)C)C(C)(C)C[C@H](O)C1=O [astaxanthin]
absorption and deposition in the flesh of the optical isomers ([1]; in vivo): equally well absorbed and deposited
